Measurements as given in patent publication US20130052213A1, “NOVEL IMMUNOMODULATORY PEPTIDE” (Novozymes A/S, priority 2011, published 2013).
No end group written: not given here.

Columns and labels:
[1] = test system: IL-10; assay: IL-10 production from LPS-stimulated PBMC (cytometric bead array); type: cell-based; conditions: human PBMCs stimulated with LPS 0.6 or 20 ng/ml; hBD2 100, 10 or 1 pg/ml; Dexamethason 3.5 ng/ml; Infliximab 1 μg/ml; 24 hours
Description: (§1) Peripheral blood was drawn from healthy volunteers (with approval from the relevant ethical committee in Denmark). Heparinized blood was diluted 1/1 v/v with RPMI and were subjected to Ficoll density centrifugation within 2 h of drawing. Plasma was collected from the top from individual donors and was kept on ice until it was used at 2% in the culture medium (autologous culture medium). Isolated PBMC were resuspended in autologous culture medium and seeded in 96-well culture plates with 255.000 cells per well in a total of 200 μl. PBMC from the same donor were stimulated with 100, 10 or 1 pg/ml of hBD2 (either full-length or cleaved) either alone or together with LPS at 0.6 ng/ml or 20 ng/ml (E. coli, O111:B4, Sigma L4391), as a control on down-regulation of inflammatory cytokines 3.5 ng/ml Dexamethason (Sigma D8893) and 1 μg/ml Infliximab (Centocur B. V., NCI039843LA) was included. The concentrations of these compounds were based on initial titration studies, where the highest possible concentration without effect of viability was used. The supernatants were collected after incubation at 37° C. for 24 hours, and stored at −80° C.° until cytokine measurement. Viability was measured by Alamar Blue (Biosource, DALL 1100) to be sure that anti-inflammatory effects were not due to toxicity.
TNF and IL-10 production in supernatants was measured by flow cytometry with a human inflammation cytometric bead array (CBA) according to manufacturer's instructions (BDBioSciences) on a FACSarray flow cytometer (BDBiosciences).
All experiments were performed at least twice on several donors, with representative results shown. The data presented are expressed as mean plus/minus standard deviation (SD). Statistical significance was determined by 2-way ANOVA with the variables being treatment (hBD2, dexamethazone, etc.) and stimulation (LPS) followed by Bonferroni post-test as reported in the table legends. Differences were considered significant for p<0.05.

[2] = test system: TNF; assay: TNF production from LPS-stimulated PBMC (cytometric bead array); type: cell-based, human; conditions: for TNF production (FIG. 2): human PBMCs stimulated with LPS 0.6 or 20 ng/ml, hBD2 100, 10 or 1 pg/ml, 24 hours
Description: as §1, with “toxicity. TNF and IL-10 production in supernatants was measured by flow cytometry with a human inflammation cytometric bead array (CBA) according to manufacturer's instructions (BDBioSciences) on a FACSarray flow cytometer (BDBiosciences). All experiments were performed at least twice on several donors, with representative results shown. The data presented are expressed as mean plus/minus standard deviation (SD). Statistical significance was determined by 2-way ANOVA with the variables being treatment (hBD2, dexamethazone, etc.) and stimulation (LPS) followed by Bonferroni post-test as reported in the table legends. Differences were considered significant for p<0.05.” for “toxicity.”

[3] = test system: IL-10; conditions: human PBMCs stimulated with LPS or another TLR ligand; cited from earlier work
[4] = test system: rheumatoid arthritis; conditions: WO 2010/007168; cited from earlier work
[5] = test system: TNF; conditions: human PBMCs stimulated with LPS or another TLR ligand; cited from earlier work

Substance | IL-10 production (FIG. 1) [1] | anti-inflammatory activity in vitro compared with full-length hBD2 (FIGS. 1 and 2) ([2]; human PBMC stimulated with LPS, TNF and IL-10 read-outs) | potency relative to full length hBD2 (FIG. 2) ([2]; human PBMC, TNF production, at some concentrations) | TNF production (FIG. 2) [2] | effect on IL-10, previously seen (WO 2010/007166) [3] | therapeutic potential in animal model of rheumatoid arthritis [4] | effect on TNF, previously seen (WO 2010/007166) [5]
PVTCLKSGAICHPVFCPRRYKQIGTCGLPGTKCCKKP [cleaved hBD2] | significantly induced IL-10 production | same anti-inflammatory activity in vitro as full-length hBD2 | more potent than full length human beta-defensin 2 | significantly reduced TNF production |  |  | 
Infliximab: anti-TNF antibody, control for anti-inflammatory effects | down-regulate IL-10 |  |  |  |  |  | 
full-length hBD2: full length human beta defensin 2, produced recombinantly in E. coli (GIGDPVTCLKSGAICHPVFCPRRYKQIGTCGLPGTKCCKKP; ends and bridges not checked; cysteine pairing not given here; listed as Homo sapiens) | significantly induced IL-10 production |  |  | significantly reduced TNF production | upregulation of IL-10 | has shown therapeutic potential | downregulation of TNF
